Measured values published in BigSolDB 2.1.

[NH3+]O.[NH3+]O.[O-]n1nnnc1-c1nnnn1[O-]
solubility (mole fraction)
Details	298.15 K	303.15 K	308.15 K	313.15 K	318.15 K	323.15 K	328.15 K	333.15 K
in formic acid	0.00145	0.00161	0.0018	0.00201	0.00225	0.00254	0.00287	0.00325
in water	7.96e-05	0.000155	0.00024	0.000317	0.000403	0.000489	0.00058	0.000665
